According to US20110230476A1, “PI3 KINASE INHIBITORS AND USES THEREOF” (AVILA THERAPEUTICS, INC., priority 2009, published 2011):
pEC50, pIC50: −log10 of the molar value. “Also recorded” adds a separate entry of the source.

Experiments:
[1] = tested on: PI3 kinase; experiment: Comparison of covalent and non-covalent inhibitors (Tables 18 and 19): prolonged PD, mechanism
Procedure: “A” designates ≦10 nM; “B” designates 10-100 nM; and “C” designates 100-1000 nM

[2] = target: p110alpha (Homo sapiens, UniProt P42336); experiment: In vitro occupancy in SKOV-3 cells with covalent probe; type: cell-based; conditions: for target occupancy (competition with the covalent probe): covalent probe XIV-a-3 or XIV-a-4
Sequence of p110alpha (P42336 whole entry): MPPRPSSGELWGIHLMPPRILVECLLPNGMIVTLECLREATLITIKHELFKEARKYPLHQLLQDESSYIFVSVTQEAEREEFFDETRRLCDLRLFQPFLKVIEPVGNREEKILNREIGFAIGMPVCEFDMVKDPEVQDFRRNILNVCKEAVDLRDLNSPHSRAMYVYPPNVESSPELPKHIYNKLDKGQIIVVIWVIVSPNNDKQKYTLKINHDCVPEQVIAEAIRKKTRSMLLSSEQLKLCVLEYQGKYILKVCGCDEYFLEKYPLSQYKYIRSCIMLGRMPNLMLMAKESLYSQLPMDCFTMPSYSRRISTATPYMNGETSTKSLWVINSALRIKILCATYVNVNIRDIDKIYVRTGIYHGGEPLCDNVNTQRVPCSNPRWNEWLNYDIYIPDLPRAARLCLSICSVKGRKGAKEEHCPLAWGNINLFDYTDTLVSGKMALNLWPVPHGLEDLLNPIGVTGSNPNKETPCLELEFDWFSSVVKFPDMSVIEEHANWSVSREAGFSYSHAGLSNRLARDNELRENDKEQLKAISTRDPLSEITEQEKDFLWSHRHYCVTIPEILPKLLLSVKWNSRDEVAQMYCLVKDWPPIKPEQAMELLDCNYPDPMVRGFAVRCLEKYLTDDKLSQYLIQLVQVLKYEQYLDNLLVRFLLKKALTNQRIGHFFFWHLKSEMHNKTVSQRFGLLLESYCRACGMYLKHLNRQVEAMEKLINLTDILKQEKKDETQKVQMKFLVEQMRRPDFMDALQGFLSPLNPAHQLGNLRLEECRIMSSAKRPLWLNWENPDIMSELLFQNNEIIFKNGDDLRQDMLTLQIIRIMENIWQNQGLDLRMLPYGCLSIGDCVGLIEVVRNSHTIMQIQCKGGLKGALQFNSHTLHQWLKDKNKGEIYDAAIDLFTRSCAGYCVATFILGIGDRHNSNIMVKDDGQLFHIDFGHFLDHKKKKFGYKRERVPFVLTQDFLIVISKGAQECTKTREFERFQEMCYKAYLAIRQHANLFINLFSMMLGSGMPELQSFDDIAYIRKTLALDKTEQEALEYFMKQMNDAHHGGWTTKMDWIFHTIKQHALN

[3] = tested on: SK-OV-3 cells; experiment: SK-OV-3 cell proliferation assay; type: cell-based; conditions: Homo sapiens; SK-OV-3 proliferation, 72 hours, Cell Titer Glo
Procedure: SK-OV-3 Cell Proliferation Assay
(§1) For the SK-OV-3 proliferation Assay, 5000 cells per well were plated in Growth Media (DMEM, 10% FBS, 1% 1-glutamine, 1% penicillin/streptomycin) in 96 well plates. The following day, compounds were added to duplicate wells at concentrations of 10 uM and 3-fold dilutions down to 40 nM. The plates were returned to the incubator for 72 hours and then the assays were developed using Cell Titer Glo (Promega, Madison, Wis.) according to manufacturer's instructions.

[4] = tested on: SKOV-3 tumors; experiment: Tumor growth inhibition in vivo; conditions: nude mice, subcutaneous SKOV-3 tumors; GDC-941 orally, II-a-3 I.P., 50-100 mg/Kg/QD, 21 days
Procedure: Tumor Growth Inhibition In Vivo
The in vivo experiment was performed at Piedmont Research Center (Research Triangle Park, N.C.). Nude mice were implanted with SKOV-3 tumors subcutaneously. […] Dosing continued for 21 days. Tumor volume was measured twice a week.

[5] = tested on: PI3K; experiment: PI3K HCT116 cellular assay (Western blot); type: cell-based; conditions: Homo sapiens, HCT-116, HCT116 colon cancer cells, 1 hour incubation, read-out: PI3K Inhibition
Procedure: PI3K HCT116 Cellular Assay
Selected compounds were assayed in HCT116 colon cancer cells. […] Cells were then washed with PBS, lysed and the protein lysates were then recovered and analyzed by Western blot.

[6] = tested on: HCT116 cells; experiment: HCT-116 cell proliferation assay; type: cell-based; conditions: Homo sapiens, 72 hours, Cell Titer Glo
Procedure: HCT-116 Cell Proliferation Assay
as §1, with “HCT116 Proliferation” for “SK-OV-3 proliferation”, “3000” for “5000”

[7] = target: T1, PI3Kα (Homo sapiens, UniProt P42336); experiment: Trypsin digest and MS-MS analysis of compound-treated PI3Kα; type: binding; design: purchased Millipore 14-602; conditions: in-gel trypsin digest
T1 sequence (P42336 whole entry): as above
T1 sequence (P27986 whole entry partner): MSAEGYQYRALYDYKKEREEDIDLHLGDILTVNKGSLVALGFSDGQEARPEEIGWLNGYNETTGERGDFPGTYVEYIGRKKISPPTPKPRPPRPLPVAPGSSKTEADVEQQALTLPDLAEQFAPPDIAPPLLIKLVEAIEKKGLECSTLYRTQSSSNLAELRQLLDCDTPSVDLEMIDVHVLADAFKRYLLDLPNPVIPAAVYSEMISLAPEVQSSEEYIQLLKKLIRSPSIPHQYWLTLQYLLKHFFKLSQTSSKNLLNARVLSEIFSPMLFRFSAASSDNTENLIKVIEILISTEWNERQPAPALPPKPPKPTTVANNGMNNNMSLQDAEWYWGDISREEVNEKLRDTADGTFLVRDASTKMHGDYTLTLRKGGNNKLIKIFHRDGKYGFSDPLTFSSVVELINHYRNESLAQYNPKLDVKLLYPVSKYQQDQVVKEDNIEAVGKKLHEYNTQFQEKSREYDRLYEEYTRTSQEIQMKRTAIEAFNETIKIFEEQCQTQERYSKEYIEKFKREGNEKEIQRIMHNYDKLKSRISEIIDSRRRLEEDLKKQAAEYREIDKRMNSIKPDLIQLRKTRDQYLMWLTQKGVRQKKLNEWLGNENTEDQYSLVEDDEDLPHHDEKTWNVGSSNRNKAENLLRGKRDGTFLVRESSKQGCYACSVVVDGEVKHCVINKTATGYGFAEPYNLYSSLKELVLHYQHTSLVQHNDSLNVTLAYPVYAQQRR
Procedure: (§2) The PI3Kα protein band was then excised and subjected to an in-gel trypsin digest by reducing the protein with DTT, alkylating the thiols with iodoacetamide, and then incubating the protein gel band with trypsin overnight in a 37° C. water bath. The digest was then stopped by addition of trifluoroacetic acid, and peptides were removed from gel band by sonicating with increasing amounts of acetonitrile (0%, 30%, & 60%). Peptides were then purified using C18 ziptips, spotted on the MALDI target plate with α-cyano-4-hydroxycinnamic acid as the desorption matrix (10 mg/ml in 0.1% TFA:Acetonitrile 50:50), and analyzed in reflectron mode.
as §2, with “trifluoro acetic” for “trifluoroacetic”

[8] = target: T1, PI3Kα; experiment: Mass spectrometry of intact PI3Kα (Millipore, 14-602), 1 hr incubation; type: binding; design: purchased Millipore 14-602; conditions: 10× fold excess of compound, MALDI
Procedure: Mass Spectrometry for PI3K
Aliquots (5 μl) of the samples were diluted with 15 μl of 0.2% TFA prior to micro C4 ZipTipping directly onto the MALDI target using Sinapinic acid as the desorption matrix (10 mg/ml in 0.1% TFA:Acetonitrile 50:50).

[9] = target: T2, PI3Kβ (p110β/p85α) (Homo sapiens, UniProt P42338); experiment: HTRF assay, potency against active PI3Kβ; type: biochemical; conditions: [ATP]=50 μM, [di-C8-PIP2]=10 μM, 30 min pre-incubation, read-out: PI3Kβ Inhibition
T2 construct: purchased BPS Bioscience (San Diego, Calif.) or Millipore (Billerica, Mass.)
T2 sequence (P42338 whole entry): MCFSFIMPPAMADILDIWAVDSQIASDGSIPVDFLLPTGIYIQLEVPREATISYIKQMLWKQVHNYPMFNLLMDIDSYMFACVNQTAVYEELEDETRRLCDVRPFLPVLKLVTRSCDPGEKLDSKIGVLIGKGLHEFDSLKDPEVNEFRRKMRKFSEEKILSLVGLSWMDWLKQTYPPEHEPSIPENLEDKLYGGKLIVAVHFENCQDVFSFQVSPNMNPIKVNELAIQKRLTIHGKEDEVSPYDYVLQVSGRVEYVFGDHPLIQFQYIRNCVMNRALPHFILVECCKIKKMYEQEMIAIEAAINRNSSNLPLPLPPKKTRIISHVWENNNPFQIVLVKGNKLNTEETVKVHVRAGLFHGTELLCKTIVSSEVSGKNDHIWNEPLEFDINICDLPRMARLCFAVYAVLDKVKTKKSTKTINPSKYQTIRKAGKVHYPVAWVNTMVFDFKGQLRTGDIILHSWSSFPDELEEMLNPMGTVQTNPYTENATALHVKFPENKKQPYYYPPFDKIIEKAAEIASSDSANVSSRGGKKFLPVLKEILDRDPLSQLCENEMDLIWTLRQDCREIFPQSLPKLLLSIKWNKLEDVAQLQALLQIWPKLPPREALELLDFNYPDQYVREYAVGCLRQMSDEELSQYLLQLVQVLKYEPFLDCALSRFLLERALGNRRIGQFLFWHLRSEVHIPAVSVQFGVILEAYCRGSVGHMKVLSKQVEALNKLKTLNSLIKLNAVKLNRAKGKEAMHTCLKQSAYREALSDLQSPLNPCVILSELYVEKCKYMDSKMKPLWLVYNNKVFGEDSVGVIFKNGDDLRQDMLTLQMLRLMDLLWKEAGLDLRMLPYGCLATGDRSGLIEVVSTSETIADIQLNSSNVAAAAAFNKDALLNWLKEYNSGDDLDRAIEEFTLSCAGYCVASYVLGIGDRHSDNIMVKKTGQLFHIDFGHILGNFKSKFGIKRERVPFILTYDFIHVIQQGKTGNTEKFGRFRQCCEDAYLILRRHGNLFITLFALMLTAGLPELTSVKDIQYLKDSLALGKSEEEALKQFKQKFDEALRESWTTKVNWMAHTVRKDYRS
T2 sequence (P27986 whole entry partner): as the sequence (P27986 whole entry partner) above
Procedure: Homogeneous Time Resolved Fluorescence (HTRF) Assay Protocol for Potency Assessment Against the Active Forms of PI3Kα, PI3Kβ, and PI3Kγ
The mechanics of the assay platform are best described by the vendor (Millipore, Billerica, Mass.) on their website at the following URL: www.millipore.com/coa/tech1/74jt4z.
Briefly, Stop solution (Stop A, #33-007 and Stop B, #33-009; 3:1 ratio) and Detection Mix (from DMC, #33-015 with DMA, #33-011 and DMB, #33-013; 18:1:1 ratio) were prepared as recommended by the manufacturer about 2 hrs prior to use. […] Lipid kinase reactions were started with the addition of 5 μL of ATP solution, mixed for 15 sec on a rotary plate shaker and incubated for 30-60 minutes at 25° C. Next, reactions were stopped with a 5 μL addition of Stop solution immediately followed by a 5 μL volume of Detection Mix. […] At the conclusion of each assay, the HTRF ratio from fluorescence emission values for each well was calculated and % Inhibition determined from averaged controls wells (+/−PI3K enzyme). % Inhibition values for each compound were then plotted against inhibitor concentration to estimate IC50 from log [Inhibitor] vs Response, Variable Slope model in GraphPad Prism from GraphPad Software (San Diego, Calif.).

[10] = tested on: SKOV3 cells; experiment: GI50 determinations in SKOV3 cells; type: cell-based; conditions: Homo sapiens, SK-OV-3
[11] = tested on: Phospho-Akt(Ser473); experiment: Dose response in SKOV3 cells as determined by in-cell Western; type: cell-based
Summary of the method: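 SKOV3 cells treated with compound for 1 hr, then formaldehyde-fixed, permeabilised and stained overnight for phospho-Akt(Ser473) with anti-tubulin as a reference. Infrared secondary antibodies read at 680 and 800 nm channels by in-cell Western imaging.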

[12] = target: T3, PI3Kα (p110α/p85α) (Homo sapiens, UniProt P42336); experiment: HTRF assay, potency against active PI3Kα; type: biochemical; conditions: HTRF; [ATP]=50 μM, [di-C8-PIP2]=10 μM; 30 min pre-incubation; read-out: PI3Kα Inhibition
T3 construct: purchased BPS Bioscience (San Diego, Calif.) or Millipore (Billerica, Mass.)
T3 sequence (P42336 whole entry): as the sequence (P42336 whole entry) above
T3 sequence (P27986 whole entry partner): as the sequence (P27986 whole entry partner) above
Summary of the method: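 IC50 came from a variable-slope fit of % inhibition, calculated from the HTRF emission ratio relative to wells with and without enzyme. Reactions with the active enzyme complex ran 30-60 minutes at 25 °C after ATP addition before stop and detection reagents.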

[13] = tested on: Phospho-Akt(Ser473); experiment: Dose response in SKOV3 cells as determined by Western blot; type: cell-based; conditions: Homo sapiens, SK-OV-3, 1 hr, Phospho-Akt normalized to total Akt, read-out: Immunoblot
Summary of the method: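 SKOV3 cells in DMEM/10% FBS were treated with compound in 0.1% DMSO for 1 hr, then lysed. 50 ug protein was immunoblotted for Phospho-Akt(Ser473) and total Akt with fluorescent read-out. Phospho-Akt was normalized to total Akt and expressed as percent of untreated signal.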

[14] = target: T4, PI3Kγ (p120γ) (Homo sapiens, UniProt P48736); experiment: HTRF assay, potency against active PI3Kγ; type: biochemical; conditions: [ATP]=50 μM, [di-C8-PIP2]=10 μM, 30 min pre-incubation, read-out: PI3Kγ Inhibition
T4 construct: purchased BPS Bioscience (San Diego, Calif.) or Millipore (Billerica, Mass.)
T4 sequence (P48736 whole entry): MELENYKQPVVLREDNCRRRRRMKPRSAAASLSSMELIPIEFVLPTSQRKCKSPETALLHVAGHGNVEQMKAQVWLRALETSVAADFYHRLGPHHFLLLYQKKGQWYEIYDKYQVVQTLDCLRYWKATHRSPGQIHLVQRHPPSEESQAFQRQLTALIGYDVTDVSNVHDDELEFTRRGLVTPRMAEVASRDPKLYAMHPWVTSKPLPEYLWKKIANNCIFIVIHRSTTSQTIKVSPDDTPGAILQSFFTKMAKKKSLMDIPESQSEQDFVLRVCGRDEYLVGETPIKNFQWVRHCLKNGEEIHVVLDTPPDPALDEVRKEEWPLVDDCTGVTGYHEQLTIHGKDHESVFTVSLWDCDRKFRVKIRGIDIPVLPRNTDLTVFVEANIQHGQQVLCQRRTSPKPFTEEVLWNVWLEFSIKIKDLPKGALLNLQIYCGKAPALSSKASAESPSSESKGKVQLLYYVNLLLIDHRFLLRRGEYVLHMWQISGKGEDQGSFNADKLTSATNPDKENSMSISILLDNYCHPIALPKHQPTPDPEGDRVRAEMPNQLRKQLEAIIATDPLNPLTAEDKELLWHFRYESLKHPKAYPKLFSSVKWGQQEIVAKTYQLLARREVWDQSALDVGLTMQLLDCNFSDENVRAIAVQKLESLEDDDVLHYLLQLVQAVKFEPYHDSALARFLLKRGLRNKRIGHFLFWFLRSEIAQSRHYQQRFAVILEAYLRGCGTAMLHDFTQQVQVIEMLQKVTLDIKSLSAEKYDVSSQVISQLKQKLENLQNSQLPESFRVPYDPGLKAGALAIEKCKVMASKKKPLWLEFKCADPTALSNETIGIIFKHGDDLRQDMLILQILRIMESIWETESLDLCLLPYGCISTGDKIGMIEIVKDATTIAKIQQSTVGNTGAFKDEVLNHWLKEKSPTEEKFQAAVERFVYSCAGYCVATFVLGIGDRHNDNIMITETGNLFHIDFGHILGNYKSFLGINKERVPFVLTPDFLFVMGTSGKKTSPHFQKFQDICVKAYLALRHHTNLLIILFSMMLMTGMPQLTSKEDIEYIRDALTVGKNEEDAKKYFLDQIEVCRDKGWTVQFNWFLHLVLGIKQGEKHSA
Summary of the method: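 End-point competition HTRF: enzyme (p110β/p85α 0.75 nM; p120γ 2-2.5 nM) with 10 μM di-C8-PIP2 pre-incubated 30 min at 25° C with compound, then 50 μM ATP added for 30-60 min at 25° C. Stopped, detected after 1 and 18 h; IC50 from variable-slope fit.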

[15] = SKOV3 cells, 96 hours, Cell Titer Glo
[16] = Homo sapiens, SK-OV-3, SKOV3 cells, 1 hr, read-out: pAKT Inhibition in cell Western
[17] = Homo sapiens, SK-OV-3, Table 18, assay not given, classes agree with Table 23, read-out: EC50 pAkt^Ser473

| pIC50 [9] | pEC50 [11, 16] | pIC50 [12] | SMILES | Prolonged PD ([1]; Table 19) | target occupancy (competition with the covalent probe) [2] | covalent modification of PI3Kα [8] | mass shift of PI3Kα [8] [Da] | mass shift of PI3Kα, per cent in brackets [8] [%] | GI50 [10, 15] [nM] | Prolonged PD ([1]; Table 18) | pEC50 [11, 17] | further results |
| --- | --- | --- | --- | --- | --- | --- | --- | --- | --- | --- | --- | --- |
|  |  |  | CS(=O)(=O)N1CCN(Cc2cc3nc(-c4cccc5[nH]ncc45)nc(N4CCOCC4)c3s2)CC1 [GDC-941, reference compound] | No | does not compete with the covalent probe |  |  |  |  |  |  | pEC50 [3]: […]; tumor growth [4]: Inhibition of tumor growth; pEC50 [5]: […]; pEC50 [6]: […] |
| 6.00 to 7.00 | 6.00 to 7.00 | 6.00 to 7.00 | C=CC(=O)Nc1ccc(C(=O)N2CC=C(c3cc4nc(-c5cccc6[nH]ncc56)nc(N5CCOCC5)c4s3)CC2)cc1 [II-a-144, N-(4-(4-(2-(1H-indazol-4-yl)-4-morpholinothieno[3,2-d]pyrimidin-6-yl)-1,2,3,6-tetrahydropyridine-1-carbonyl)phenyl)acrylamide] |  |  | complete modification; also recorded: covalent modification | 575 | 97 | 100 to 1000 |  |  | site on PI3Kα that is covalently modified [7]: Cys-862; also recorded: peptide ^853NSHTIMQIQCK^863 |
| < 6.00 | 6.00 to 7.00 | 6.00 to 7.00 | CCC(=O)Nc1ccc(CCNC(=O)c2cc3nc(-c4cccc5[nH]ncc45)nc(N4CCOCC4)c3s2)cc1 [II^R-a-148, 2-(1H-indazol-4-yl)-4-morpholino-N-(4-propionamidophenethyl)thieno[3,2-d]pyrimidine-6-carboxamide] |  |  |  |  |  |  | No | 6.00 to 7.00 | pIC50 [14]: < 6.00 |

| SMILES | pIC50 [9] | pEC50 [11, 16] | pIC50 [12] | Prolonged PD ([1]; Table 19) | target occupancy (competition with the covalent probe) [2] | covalent modification of PI3Kα [8] | mass shift of PI3Kα [8] [Da] | mass shift of PI3Kα, per cent in brackets [8] [%] | GI50 [10, 15] [nM] | Prolonged PD ([1]; Table 18) | pEC50 [11, 17] | further results |
| --- | --- | --- | --- | --- | --- | --- | --- | --- | --- | --- | --- | --- |
| C=CC(=O)Nc1ccc(CCNC(=O)c2cc3nc(-c4cccc5[nH]ncc45)nc(N4CCOCC4)c3s2)cc1 [II-a-148, N-(4-acrylamidophenethyl)-2-(1H-indazol-4-yl)-4-morpholinothieno[3,2-d]pyrimidine-6-carboxamide] | < 6.00 | 7.00 to 8.00 | 6.00 to 7.00 | Yes | Dose-dependent target occupancy | complete modification; also recorded: covalent modification | 472 | 85 | 10 to 100 | Yes | 7.00 to 8.00 | pEC50 [13]: ≥ 8.00; pEC50 ([2]; read-out: EC50 for occupying p110alpha, covalent probe XIV-a-3 or XIV-a-4): ~7.40; GI50 ([10]; Table 19, assay not given, classes agree with Table 26): 10 to 100 nM; pEC50 ([11]; Table 19, assay not given, classes agree with Table 23, read-out: EC50 pAkt^Ser473): 7.00 to 8.00 |
